Experimental data from ChEMBL document CHEMBL4177562, “Synthetic ligand promotes gene expression by affecting GC sequence in promoter” (2017).
Calls of active or inactive are those of the source. No cut-off for these calls is given here.

Tests used:
[1] = Binding affinity to TCTT of 5'-Biotinylated-dCAG CGT GTG GTT TTT CTTTTT ACC ACA CGC TG-3' (unknown origin) at 1.25 to 20 nM after 30 secs by SPR analysis
[2] = Binding affinity to CGGT of 5'-Biotinylated-dCAG CGT GTG GTT TTC GGTTTT ACC ACA CGC TG-3' (unknown origin) after 30 secs by SPR analysis
HeLa [3] = test: Upregulation of cytoplasm-related genes (GO:0005737) in human HeLa cells measured at 12 hrs; format: functional
[4] = Binding affinity to CACA of 5'-Biotinylated-dCAG CGT GTG GTT TTC ACATTT ACC ACA CGC TG-3' (unknown origin) at 1.25 to 20 nM after 30 secs by SPR analysis
HeLa [5] = test: Upregulation of nucleus-related genes (GO:0005634) in human HeLa cells measured at 12 hrs; format: functional
HeLa [6] = test: Downregulation of CERS5 mRNA expression in human HeLa cells at 0.1 uM after 24 hrs by RT-qPCR analysis; format: functional, cell-based
[7] = Binding affinity to ATTT of 5'-Biotinylated-dCAG CGT GTG GTT TTA TTTTTT ACC ACA CGC TG-3' (unknown origin) at 1.25 to 20 nM after 30 secs by SPR analysis
HeLa [8] = test: Upregulation of nucleolus-related genes (GO:0005730) in human HeLa cells measured at 24 hrs; format: functional
HeLa [9] = test: Downregulation of mitochondrial matrix-related genes (GO:0005759) in human HeLa cells measured at 12 hrs; format: functional
HeLa [10] = test: Downregulation of COQ9 mRNA expression in human HeLa cells at 0.1 uM after 24 hrs by RT-qPCR analysis; format: functional, cell-based
[11] = Binding affinity to GGGC of 5'-Biotinylated-dCAG CGT GTG GTT TTG GGCTTT ACC ACA CGC TG-3' (unknown origin) after 30 secs by SPR analysis
HeLa [12] = test: Upregulation of spindle midzone-related genes (GO:0051233) in human HeLa cells measured at 24 hrs; format: functional
HeLa [13] = test: Downregulation of ciliary tip-related genes (GO:0097542) in human HeLa cells measured at 12 hrs; format: functional
HeLa [14] = test: Upregulation of GCNA mRNA expression in human HeLa cells at 0.1 uM after 24 hrs by RT-qPCR analysis; format: functional, cell-based
HeLa [15] = test: Upregulation of cytoplasm-related genes (GO:0005737) in human HeLa cells measured at 12 to 24 hrs; format: functional
HeLa [16] = test: Downregulation of peroxisome-related genes (GO:0005777) in human HeLa cells measured at 12 hrs; format: functional
HeLa [17] = test: Downregulation of serine C-palmitoyltransferase complex-related genes (GO:0017059) in human HeLa cells measured at 12 hrs; format: functional
HeLa [18] = test: Downregulation of extracellular exosome-related genes (GO:0070062) in human HeLa cells measured at 24 hrs; format: functional
HeLa [19] = test: Downregulation of extracellular region-related genes (GO:0005576) in human HeLa cells measured at 24 hrs; format: functional
HeLa [20] = test: Downregulation of primary cilium-related genes (GO:0072372) in human HeLa cells measured at 12 hrs; format: functional
HeLa [21] = test: Upregulation of nucleoplasm-related genes (GO:0005654) in human HeLa cells measured at 12 hrs; format: functional
[22] = Binding affinity to TGGC of 5'-Biotinylated-dCAG CGT GTG GTT TTT GGCTTT ACC ACA CGC TG-3' (unknown origin) after 30 secs by SPR analysis
HeLa [23] = test: Upregulation of IFIT2 mRNA expression in human HeLa cells at 0.1 uM after 24 hrs by RT-qPCR analysis; format: functional, cell-based
HeLa [24] = test: Upregulation of positive regulation of cytokinesis-related genes (GO:0032467) in human HeLa cells measured at 12 to 24 hrs; format: functional
HeLa [25] = test: Upregulation of OASL mRNA expression in human HeLa cells at 0.1 uM after 24 hrs by RT-qPCR analysis; format: functional, cell-based
HeLa [26] = test: Upregulation of cytoplasm-related genes (GO:0005737) in human HeLa cells measured at 24 hrs; format: functional
HeLa [27] = test: Downregulation of progesterone metabolic process-related genes (GO:0042448) in human HeLa cells measured at 24 hrs; format: functional
[28] = Binding affinity to TTTA of 5'-Biotinylated-dCAG CGT GTG GTT TTT TTATTT ACC ACA CGC TG-3' (unknown origin) at 1.25 to 20 nM after 30 secs by SPR analysis
HeLa [29] = test: Downregulation of skin development-related genes (GO:0043588) in human HeLa cells measured at 12 to 24 hrs; format: functional
[30] = Binding affinity to AAAA of 5'-Biotinylated-dCAG CGT GTG GTT TTA AAATTT ACC ACA CGC TG-3' (unknown origin) at 1.25 to 20 nM after 30 secs by SPR analysis
HeLa [31] = test: Upregulation of negative regulation of inclusion body assembly-related genes (GO:0090084) in human HeLa cells measured at 12 hrs; format: functional
[32] = Binding affinity to GGGG of 5'-Biotinylated-dCAG CGT GTG GTT TTG GGGTTT ACC ACA CGC TG-3' (unknown origin) after 30 secs by SPR analysis
HeLa [33] = test: Downregulation of apical plasma membrane-related genes (GO:0016324) in human HeLa cells measured at 12 to 24 hrs; format: functional
HeLa [34] = test: Upregulation of microtubule cytoskeleton-related genes (GO:0015630) in human HeLa cells measured at 24 hrs; format: functional
HeLa [35] = test: Upregulation of spindle midzone-related genes (GO:0051233) in human HeLa cells measured at 12 to 24 hrs; format: functional
[36] = Binding affinity to CGGG of 5'-Biotinylated-dCAG CGT GTG GTT TTC GGGTTT ACC ACA CGC TG-3' (unknown origin) after 30 secs by SPR analysis
[37] = Binding affinity to GCGG of 5'-Biotinylated-dCAG CGT GTG GTT TTG C(Me)GGTTT ACC ACA CGC TG-3' (unknown origin) at 1.25 to 20 nM after 30 secs by SPR analysis
HeLa [38] = test: Upregulation of transcription/DNA-templated-related genes (GO:0006351) in human HeLa cells measured at 12 hrs; format: functional
HeLa [39] = test: Upregulation of SULT4A1 mRNA expression in human HeLa cells at 0.1 uM after 24 hrs by RT-qPCR analysis; format: functional, cell-based
HeLa [40] = test: Downregulation of STK39 mRNA expression in human HeLa cells at 0.1 uM after 24 hrs by RT-qPCR analysis; format: functional, cell-based
[41] = Binding affinity to TTTT of 5'-Biotinylated-dCAG CGT GTG GTT TTT TTTTTT ACC ACA CGC TG-3' (unknown origin) at 1.25 to 20 nM after 30 secs by SPR analysis
[42] = Binding affinity to GCGG of 5'-Biotinylated-dCAG CGT GTG GTT TTG CGGTTT ACC ACA CGC TG-3' (unknown origin) after 30 secs by SPR analysis
HeLa [43] = test: Downregulation of proteinaceous extracellular matrix-related genes (GO:0005578) in human HeLa cells measured at 24 hrs; format: functional
HeLa [44] = test: Upregulation of mitotic nuclear division-related genes (GO:0007067) in human HeLa cells measured at 24 hrs; format: functional
HeLa [45] = test: Upregulation of NBPF10 mRNA expression in human HeLa cells at 0.1 uM after 24 hrs by RT-qPCR analysis; format: functional, cell-based
HeLa [46] = test: Downregulation of oxidation-reduction process-related genes (GO:0055114) in human HeLa cells measured at 12 to 24 hrs; format: functional; parameters: scale not given: the % may be the effect or the level left
HeLa [47] = test: Downregulation of cell periphery-related genes (GO:0071944) in human HeLa cells measured at 24 hrs; format: functional

SMILES: Cc1ccc2ccc(NC(=O)OCCCN(CCCCCCCCN(CCCOC(=O)Nc3ccc4ccc(C)nc4n3)CCCOC(=O)Nc3ccc4ccc(C)nc4n3)CCCOC(=O)Nc3ccc4ccc(C)nc4n3)nc2n1
- Activity [1]: inactive
- Activity [2]: Dose-dependent effect
- Activity (HeLa [3]): 34.56%
- Activity [4]: inactive
- Activity (HeLa [5]): 43.78%
- Activity (HeLa [6]): Active
- Activity [7]: inactive
- Activity (HeLa [8]): 9.23%
- Activity (HeLa [9]): 3.74%
- Activity (HeLa [10]): Active
- Activity [11]: Dose-dependent effect
- Activity (HeLa [12]): 3.08%
- Activity (HeLa [13]): 1.6%
- Activity (HeLa [14]): Active
- Activity (HeLa [15]): 33.33%
- Activity (HeLa [16]): 2.14%
- Activity (HeLa [17]): 1.07%
- Activity (HeLa [18]): 24.49%
- Activity (HeLa [19]): 22.45%
- Activity (HeLa [20]): 2.14%
- Activity (HeLa [21]): 26.27%
- Activity [22]: Dose-dependent effect
- Activity (HeLa [23]): Active
- Activity (HeLa [24]): 5.55%
- Activity (HeLa [25]): Active
- Activity (HeLa [26]): 33.85%
- Activity (HeLa [27]): 4.08%
- Activity [28]: inactive
- Activity (HeLa [29]): 6.67%
- Activity [30]: inactive
- Activity (HeLa [31]): 2.3%
- Activity [32]: Dose-dependent effect
- Activity (HeLa [33]): 10%
- Activity (HeLa [34]): 4.62%
- Activity (HeLa [35]): 5.56%
- Activity [36]: Dose-dependent effect
- Activity [37]: inactive
- Activity (HeLa [38]): 20.28%
- Activity (HeLa [39]): Active
- Activity (HeLa [40]): Active
- Activity [41]: inactive
- Activity [42]: Dose-dependent effect
- Activity (HeLa [43]): 12.24%
- Activity (HeLa [44]): 7.69%
- Activity (HeLa [45]): Active
- Activity (HeLa [46]): 16.67%
- Activity (HeLa [47]): 4.08%
